In experiment [1] the test system is PDAC2 3D spheres. Kind of experiment: Viability curves on PDAC2 3D spheres. Particulars: for pEC50: Homo sapiens. The class given is cell-based, human. The source says: The PDAC patient-derived xenograft (PDX) Panc354 (referred to hereafter as PDAC3) was obtained from Dr. Manuel Hidalgo under a Material Transfer Agreement with the Spanish National Cancer Centre (CNIO), Madrid, Spain (Reference no. I409181220BSMH). PDAC1, PDAC2 and PDAC4 PDXs were established from primary patient resected tumors. Samples were provided by the BioBank Hospital Ramón y Cajal-IRYCIS (PT13/0010/0002), integrated in the Spanish National Biobanks Network and they were processed following standard operating procedures with the appropriate approval of the Ethical and Scientific Committees (Control no. No. Control: DE-BIOB-73 AC65, RG.BIOB-96 REV, and CI-BIOB-08-10-01 rev), with informed consent and according to Declaration of Helsinki principles. Primary patient tumors were subcutaneously implanted in immunocompromised female 6- to 8-week-old NU-Foxn1nu nude mice (Envigo, Barcelona, Spain) and subsequently passage in vivo to establish PDX PDAC1, PDAC2 and PDAC4. Primary PDX-derived in vitro cultures were established as previously detailed. Briefly, xenografts were minced, enzymatically digested with collagenase (Stem Cell Technologies) for 60 min at 37 °C and after centrifugation for 5 min at 1800 rpm, the cell pellets were resuspended and cultured in RPMI (1:1; #61870-010; Gibco, Waltham, MA, USA) supplemented with 10% FBS (Invitrogen, Waltham, MA, USA), Pen/Strep (1:100; #1500-063; Gibco, Waltham, MA, USA), and Fungizone (1:250; #15290-018; Gibco, Waltham, MA, USA). Primary cultures were tested for Mycoplasma at least every 4 weeks.
(§1) Pancreatic CSC spheres were generated as previously described in ultra-low attachment plates (Corning) using CSC media: serum-free DMEM/F12 medium (1:1; #21331-020; Gibco, Waltham, MA, USA), supplemented with Pen/Strep (1:100; #1500-063; Gibco, Waltham, MA, USA), Fungizone (1:250; #15290-018; Gibco), L-Glutamine (1:100; #25030-024; Gibco, Waltham, MA, USA), B-27 (1:50; #17504-044; Gibco, Waltham, MA, USA) and basic fibroblast growth factor (FGF-b) (1:5000; Gibco, Waltham, MA, USA). All cell culture was carried out at 37 °C in a 5% CO2 humidified incubator. To quantify spheres of > 40 μm, 1 mL of sample volume was analyzed with a CASY® Cell Counter (Roche Applied Sciences, Mannheim, Germany). The CASY® Cell Counter measuring principle is based on a capillary particle counter with pulse area analysis, that permits the determination of cell count, cell concentration, cell volume (peak), and average cell diameter, specifically diameters of 40–80 μm, 80–120 μm and >120 μm.
Murine embryonic stem cells (mESCs) were plated at 20,000 cells per well in gelatinized 96 well plates. Compounds from the 640 compound ETP library were added by a Beckman FX 96 tip to achieve a final concentration of 5 µM in each well, and each compound was tested in duplicate. Cells were treated for a total of 30 h prior to assessing cell viability using CellTiter 96® AQueous One Solution Cell Proliferation Assay (MTS) assay according to manufacturer’s instructions (G3582, Promega, Madison, WI, USA). Dose response curves were carried out on mESCs under the same conditions using indicated compounds. To test the viability of CSCs, 10,000 PDAC cells were plated in spheroid conditions and immediately treated with indicated compounds and concentrations for the duration of the sphere formation assay. […]

In experiment [2] the test system is PDAC3 cultures. Kind of experiment: Sphere formation assay. Conditions: 1.25 or 2.5 µM. The class given is cell-based, human.
From the text: as §1

Experiment [3] concerns PDAC1 cultures. The experiment is described as follows: Sphere formation assay. The class given is cell-based, human. Conditions: 1.25 or 2.5 µM.
From the text: as §1

Experiment [4] concerns the target PIM3 (Homo sapiens, UniProt Q86V86). Kind of experiment: PIM kinase activity assay. The format is biochemical. Here is the method:
(§2) PIM1/3 kinase activities were measured as previously described in Martínez-Gonzalez et al.. HASPIN activity was measured using the commercial ADP GLO assay (Promega), a homogeneous assay measuring ADP accumulation, as a universal product of kinase activity. The assay was done following general manufacturer recommendations and adapting protein to optimal conditions.

Experiment [5] concerns the target PIM1 (Homo sapiens, UniProt P11309). The experiment is described as follows: PIM kinase activity assay. The format is biochemical. Here is the method: as §2
Experiment [6] addresses T1, RIPK4 (Homo sapiens, UniProt P57078).
T1 construct: purchased DiscoveRx KINOMEscan
The experiment is described as follows: KINOMEscan. The format is binding. Conditions: read-out: % Ctrl.

In experiment [7] the target is T2, MAP3K2 (Homo sapiens, UniProt Q9Y2U5).
T2 construct: purchased DiscoveRx KINOMEscan
T2 sequence (Q9Y2U5 whole entry): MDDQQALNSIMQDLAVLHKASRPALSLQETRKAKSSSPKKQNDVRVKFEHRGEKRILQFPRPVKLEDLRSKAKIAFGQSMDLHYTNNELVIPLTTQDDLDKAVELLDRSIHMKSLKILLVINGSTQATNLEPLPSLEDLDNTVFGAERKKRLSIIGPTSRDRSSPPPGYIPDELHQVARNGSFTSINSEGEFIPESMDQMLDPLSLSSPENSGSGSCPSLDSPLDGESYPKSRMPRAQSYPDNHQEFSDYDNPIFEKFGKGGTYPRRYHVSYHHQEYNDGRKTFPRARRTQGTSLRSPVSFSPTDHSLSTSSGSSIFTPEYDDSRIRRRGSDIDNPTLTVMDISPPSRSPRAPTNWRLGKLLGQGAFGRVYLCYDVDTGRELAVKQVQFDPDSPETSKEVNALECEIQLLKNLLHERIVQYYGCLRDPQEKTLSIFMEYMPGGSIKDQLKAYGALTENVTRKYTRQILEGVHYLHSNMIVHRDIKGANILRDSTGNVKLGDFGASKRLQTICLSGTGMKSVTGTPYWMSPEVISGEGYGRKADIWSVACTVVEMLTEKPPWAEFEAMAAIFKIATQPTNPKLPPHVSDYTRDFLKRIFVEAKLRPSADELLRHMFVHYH
The experiment is described as follows: KINOMEscan. The class given is binding. Particulars: read-out: % Ctrl.

The target in experiment [8] is T3, ERK5 (Homo sapiens, UniProt Q13164).
T3 construct: purchased DiscoveRx KINOMEscan
T3 sequence (Q13164 whole entry): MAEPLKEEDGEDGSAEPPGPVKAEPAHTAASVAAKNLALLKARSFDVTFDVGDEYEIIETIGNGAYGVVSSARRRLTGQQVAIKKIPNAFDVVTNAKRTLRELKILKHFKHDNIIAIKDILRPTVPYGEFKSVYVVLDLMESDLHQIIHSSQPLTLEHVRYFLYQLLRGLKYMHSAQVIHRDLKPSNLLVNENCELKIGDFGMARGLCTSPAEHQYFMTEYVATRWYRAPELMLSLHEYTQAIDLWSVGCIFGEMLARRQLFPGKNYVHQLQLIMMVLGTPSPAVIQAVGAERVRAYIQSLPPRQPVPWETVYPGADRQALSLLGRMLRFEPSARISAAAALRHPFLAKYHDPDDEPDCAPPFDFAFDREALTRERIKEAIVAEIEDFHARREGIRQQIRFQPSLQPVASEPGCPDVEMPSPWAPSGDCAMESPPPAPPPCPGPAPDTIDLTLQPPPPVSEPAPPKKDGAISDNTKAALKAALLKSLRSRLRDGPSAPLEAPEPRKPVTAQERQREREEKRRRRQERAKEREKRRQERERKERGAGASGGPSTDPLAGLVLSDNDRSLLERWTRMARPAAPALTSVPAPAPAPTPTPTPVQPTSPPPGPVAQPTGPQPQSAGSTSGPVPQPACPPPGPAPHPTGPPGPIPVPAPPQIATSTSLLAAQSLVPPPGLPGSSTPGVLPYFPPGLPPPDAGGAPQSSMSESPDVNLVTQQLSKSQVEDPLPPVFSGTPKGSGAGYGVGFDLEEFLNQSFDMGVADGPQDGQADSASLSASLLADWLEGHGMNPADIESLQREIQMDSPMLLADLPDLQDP
Kind of experiment: KINOMEscan. The class given is binding. Particulars: read-out: % Ctrl.

Experiment [9] has as its target T4, HIPK1 (Homo sapiens, UniProt Q86Z02).
T4 construct: purchased DiscoveRx KINOMEscan
Kind of experiment: KINOMEscan. Particulars: read-out: % Ctrl. The class given is binding.

The target of experiment [10] is T5, QSK (Homo sapiens, UniProt Q9Y2K2).
T5 construct: purchased DiscoveRx KINOMEscan
The experiment is described as follows: KINOMEscan. The format is binding. Conditions: read-out: % Ctrl.

Experiment [11] deals with T6, ABL1(T315I)-nonP (Homo sapiens, UniProt P00519, T315I).
T6 construct: purchased DiscoveRx KINOMEscan
Kind of experiment: KINOMEscan. Particulars: read-out: % Ctrl. The class given is binding.

Experiment [12] has as its target T7, DCAMKL2 (Homo sapiens, UniProt Q8N568).
T7 construct: purchased DiscoveRx KINOMEscan
The experiment is described as follows: KINOMEscan. The format is binding. Particulars: read-out: % Ctrl.

Experiment [13] has as its target T8, BRAF (Homo sapiens, UniProt P15056).
T8 construct: purchased DiscoveRx KINOMEscan
The experiment is described as follows: KINOMEscan. The format is binding. Particulars: read-out: % Ctrl.

The target in experiment [14] is T9, PIK3C2G (Homo sapiens, UniProt O75747).
T9 construct: purchased DiscoveRx KINOMEscan
Kind of experiment: KINOMEscan. The class given is binding. Conditions: read-out: % Ctrl.

In experiment [15] the target is T10, TXK (Homo sapiens, UniProt P42681).
T10 construct: purchased DiscoveRx KINOMEscan
The experiment is described as follows: KINOMEscan. The class given is binding. Particulars: read-out: % Ctrl.

The target of experiment [16] is T11, MEK3 (Homo sapiens, UniProt P46734).
T11 construct: purchased DiscoveRx KINOMEscan
T11 sequence (P46734 whole entry): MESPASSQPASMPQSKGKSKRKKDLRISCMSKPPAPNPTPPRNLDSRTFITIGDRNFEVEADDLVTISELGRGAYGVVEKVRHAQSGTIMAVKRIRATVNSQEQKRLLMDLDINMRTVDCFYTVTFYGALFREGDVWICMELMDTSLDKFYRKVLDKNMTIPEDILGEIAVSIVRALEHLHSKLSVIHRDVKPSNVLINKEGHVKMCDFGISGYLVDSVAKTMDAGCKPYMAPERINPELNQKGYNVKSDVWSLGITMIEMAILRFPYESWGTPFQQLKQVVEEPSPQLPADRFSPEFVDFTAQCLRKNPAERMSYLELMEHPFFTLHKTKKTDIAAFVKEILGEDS
Kind of experiment: KINOMEscan. The format is binding. Conditions: read-out: % Ctrl.

Experiment [17] has as its target T12, AXL (Homo sapiens, UniProt P30530).
T12 construct: purchased DiscoveRx KINOMEscan
The experiment is described as follows: KINOMEscan. The format is binding. Particulars: read-out: % Ctrl.

Experiment [18] concerns the target T13, DAPK1 (Homo sapiens, UniProt P53355).
T13 construct: purchased DiscoveRx KINOMEscan
The experiment is described as follows: KINOMEscan. Conditions: read-out: % Ctrl. The class given is binding.

From article PMC7407272, “Induction of Lysosome Membrane Permeabilization as a Therapeutic Strategy to Target Pancreatic Cancer Stem Cells” (Cancers, 2020) come the findings set out here.

pEC50, pIC50: −log10 of the molar value. Where two headings read alike, the source gives them in different places.

PIM1, sequence (P11309 whole entry): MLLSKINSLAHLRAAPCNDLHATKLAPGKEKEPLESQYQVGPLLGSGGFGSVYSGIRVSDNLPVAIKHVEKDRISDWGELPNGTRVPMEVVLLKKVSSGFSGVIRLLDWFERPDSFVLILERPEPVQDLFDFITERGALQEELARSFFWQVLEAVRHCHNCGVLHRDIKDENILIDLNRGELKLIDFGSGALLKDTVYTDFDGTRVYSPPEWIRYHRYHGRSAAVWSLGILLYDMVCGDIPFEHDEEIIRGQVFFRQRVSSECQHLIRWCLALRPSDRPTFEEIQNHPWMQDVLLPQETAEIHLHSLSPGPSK
T1 sequence (P57078 whole entry): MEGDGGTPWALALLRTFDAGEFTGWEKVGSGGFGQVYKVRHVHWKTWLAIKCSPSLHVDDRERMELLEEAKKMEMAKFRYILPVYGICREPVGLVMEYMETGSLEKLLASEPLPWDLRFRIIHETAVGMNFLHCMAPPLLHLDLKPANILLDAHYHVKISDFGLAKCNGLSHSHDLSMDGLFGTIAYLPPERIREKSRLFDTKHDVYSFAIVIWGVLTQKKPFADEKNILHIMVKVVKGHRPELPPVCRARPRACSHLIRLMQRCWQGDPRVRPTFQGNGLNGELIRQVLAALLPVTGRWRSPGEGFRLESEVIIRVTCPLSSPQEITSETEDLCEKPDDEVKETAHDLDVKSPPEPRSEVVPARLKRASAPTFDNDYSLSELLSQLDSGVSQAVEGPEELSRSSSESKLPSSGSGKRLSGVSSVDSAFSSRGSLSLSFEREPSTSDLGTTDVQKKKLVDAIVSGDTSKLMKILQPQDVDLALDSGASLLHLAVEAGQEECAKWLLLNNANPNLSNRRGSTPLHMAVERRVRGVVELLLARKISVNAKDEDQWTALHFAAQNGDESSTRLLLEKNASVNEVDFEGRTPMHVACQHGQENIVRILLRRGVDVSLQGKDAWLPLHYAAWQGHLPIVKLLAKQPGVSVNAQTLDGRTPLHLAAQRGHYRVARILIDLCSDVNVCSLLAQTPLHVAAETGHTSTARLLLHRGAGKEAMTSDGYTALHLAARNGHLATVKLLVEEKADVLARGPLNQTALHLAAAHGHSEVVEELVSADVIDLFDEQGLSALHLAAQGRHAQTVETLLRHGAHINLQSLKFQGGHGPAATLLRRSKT
T8 sequence (P15056 whole entry): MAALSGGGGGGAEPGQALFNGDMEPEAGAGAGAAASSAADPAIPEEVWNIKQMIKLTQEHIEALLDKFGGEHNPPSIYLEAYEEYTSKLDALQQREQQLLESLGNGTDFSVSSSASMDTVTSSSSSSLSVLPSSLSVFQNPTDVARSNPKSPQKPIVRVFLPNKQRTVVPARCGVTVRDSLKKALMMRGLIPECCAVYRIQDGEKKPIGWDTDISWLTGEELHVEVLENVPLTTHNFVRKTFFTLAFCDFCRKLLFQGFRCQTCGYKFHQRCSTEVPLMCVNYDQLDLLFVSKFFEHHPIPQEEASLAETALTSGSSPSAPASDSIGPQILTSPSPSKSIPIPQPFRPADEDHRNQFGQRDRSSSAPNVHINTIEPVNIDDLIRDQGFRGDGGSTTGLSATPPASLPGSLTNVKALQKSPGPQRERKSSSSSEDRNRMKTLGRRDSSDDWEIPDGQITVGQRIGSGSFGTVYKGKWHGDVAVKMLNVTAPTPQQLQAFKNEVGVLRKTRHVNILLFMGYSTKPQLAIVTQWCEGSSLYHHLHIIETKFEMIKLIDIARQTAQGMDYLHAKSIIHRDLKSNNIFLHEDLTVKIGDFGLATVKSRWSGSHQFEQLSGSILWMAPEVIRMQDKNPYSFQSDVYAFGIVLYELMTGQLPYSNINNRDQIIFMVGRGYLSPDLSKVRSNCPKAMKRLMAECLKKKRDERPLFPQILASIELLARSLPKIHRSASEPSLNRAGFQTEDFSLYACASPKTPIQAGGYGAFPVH
T12 sequence (P30530 26-894): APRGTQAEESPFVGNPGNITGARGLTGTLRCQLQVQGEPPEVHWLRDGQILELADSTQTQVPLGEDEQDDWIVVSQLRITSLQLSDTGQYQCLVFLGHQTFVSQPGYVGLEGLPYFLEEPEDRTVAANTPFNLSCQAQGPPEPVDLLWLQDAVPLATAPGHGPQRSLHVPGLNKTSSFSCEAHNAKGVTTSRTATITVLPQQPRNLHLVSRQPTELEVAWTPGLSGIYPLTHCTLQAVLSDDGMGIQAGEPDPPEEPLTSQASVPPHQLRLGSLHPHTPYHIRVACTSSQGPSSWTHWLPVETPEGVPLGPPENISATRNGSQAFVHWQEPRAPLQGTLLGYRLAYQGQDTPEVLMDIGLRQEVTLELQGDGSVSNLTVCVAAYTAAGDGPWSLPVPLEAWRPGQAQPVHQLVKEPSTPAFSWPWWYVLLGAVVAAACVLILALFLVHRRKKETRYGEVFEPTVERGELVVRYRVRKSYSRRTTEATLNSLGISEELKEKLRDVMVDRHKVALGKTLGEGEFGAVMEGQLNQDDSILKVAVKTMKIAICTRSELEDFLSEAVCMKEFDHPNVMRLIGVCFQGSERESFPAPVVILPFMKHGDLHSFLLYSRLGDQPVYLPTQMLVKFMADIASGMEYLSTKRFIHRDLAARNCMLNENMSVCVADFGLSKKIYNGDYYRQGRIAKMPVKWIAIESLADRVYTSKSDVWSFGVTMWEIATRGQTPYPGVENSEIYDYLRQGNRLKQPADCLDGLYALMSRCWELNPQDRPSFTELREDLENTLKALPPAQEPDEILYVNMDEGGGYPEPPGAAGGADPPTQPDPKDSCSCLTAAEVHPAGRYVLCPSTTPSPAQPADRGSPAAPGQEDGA

Regarding `Fc1ccc(-n2cc(CCCCN3CCC4(CC3)OCc3ccccc34)c3ccccc32)cc1` [siramesine], the pEC50 in experiment [1] (PDAC-2, 30 h, read-out: EC50 (viability), PDAC2 spheres) was 5.22. The sphere forming capacity result in experiment [2] and in experiment [3] was “decreased sphere forming capacity” throughout.
In the case of `COc1nc2ccc(NCC3CCN(C)CC3)nn2c1C(=O)Nc1cccc(OC(F)(F)F)c1` [Cpd 1], the pIC50 in [4] and in experiment [5] was under 5.00 throughout.
As for `CN1CCC(CNc2ccc3ncc(C(=O)Nc4cccc(OC(F)(F)F)c4)n3n2)CC1` [Cpd 2], the remaining binding at 1 µM is 96% in experiment [6]; 92% in experiment [7]; 100% in experiment [8]; 100% in experiment [9]; 100% in experiment [10]; 70% in experiment [11]. Also, the remaining binding at 1 µM in [12] worked out at 97%; in [13], 100%; in [14], 59%; in experiment [15] it was 100%; in experiment [16], 94%; in experiment [17] it was 65%. Moreover, the remaining binding at 1 µM in [18] turned out to be 82%. The results for the pIC50 in experiment [4] (kinase orthogonal assay) and in [5] (kinase orthogonal assay) were 6.89 and 7.01, respectively. The “prevention of the effect on PDAC2 CSC survival by Bafilomycin-A” value in experiment [1] (100 nM Bafilomycin 5 h pretreatment) is recorded as “≈ 3 fold”. Further, the pEC50 in experiment [1] (PDAC-2, 72 h, no Bafilomycin, read-out: EC50 (viability), PDAC2 spheres) was 5.42; in experiment [1] (PDAC-2, pretreated with 100 nM Bafilomycin for 5 h, then 72 h, read-out: EC50 (viability), PDAC2 spheres, +Baf) it was 5.04. The sphere forming capacity result in experiment [2] and in experiment [3] was “decreased sphere forming capacity” in each case.
